We go through two molecules from paper PMC4066849 (Structure (London, England : 1993), 2014).

Assay [1] addresses Drp1 (Mus musculus, UniProt Q8K1M6). The assay is described as follows: GTP hydrolysis by purified Drp1. The assay is classed as biochemical.
In assay [2] the target is MiD51 (Mus musculus, UniProt Q8BGV8). In words: fluorescence anisotropy equilibrium titration. The class given is binding. Background: In fluorescence polarisation assays a small probe gives low polarisation when free and higher when bound to something large.

What is called Kd is the concentration at which binding is half-saturated.

Chain of Drp1 (Q8K1M6 whole entry): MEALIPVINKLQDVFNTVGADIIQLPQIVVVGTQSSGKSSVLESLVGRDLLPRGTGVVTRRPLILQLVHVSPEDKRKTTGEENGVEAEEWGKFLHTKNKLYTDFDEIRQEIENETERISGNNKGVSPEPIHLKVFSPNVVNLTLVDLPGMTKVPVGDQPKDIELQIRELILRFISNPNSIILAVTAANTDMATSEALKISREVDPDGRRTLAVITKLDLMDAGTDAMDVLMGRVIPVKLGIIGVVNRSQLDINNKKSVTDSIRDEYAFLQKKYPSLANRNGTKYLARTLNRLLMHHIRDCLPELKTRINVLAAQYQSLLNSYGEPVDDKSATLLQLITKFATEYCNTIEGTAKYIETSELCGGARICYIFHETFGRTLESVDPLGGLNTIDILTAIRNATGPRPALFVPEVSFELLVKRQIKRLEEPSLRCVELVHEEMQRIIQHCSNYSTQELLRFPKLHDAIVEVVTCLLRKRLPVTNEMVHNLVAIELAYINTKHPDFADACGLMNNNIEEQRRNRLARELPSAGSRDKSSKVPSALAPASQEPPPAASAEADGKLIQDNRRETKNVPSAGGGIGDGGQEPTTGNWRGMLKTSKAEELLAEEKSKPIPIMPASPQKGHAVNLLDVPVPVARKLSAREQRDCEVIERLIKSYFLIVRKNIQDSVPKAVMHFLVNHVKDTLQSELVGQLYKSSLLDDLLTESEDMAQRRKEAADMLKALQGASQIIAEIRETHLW
Chain of MiD51 (Q8BGV8 134-463): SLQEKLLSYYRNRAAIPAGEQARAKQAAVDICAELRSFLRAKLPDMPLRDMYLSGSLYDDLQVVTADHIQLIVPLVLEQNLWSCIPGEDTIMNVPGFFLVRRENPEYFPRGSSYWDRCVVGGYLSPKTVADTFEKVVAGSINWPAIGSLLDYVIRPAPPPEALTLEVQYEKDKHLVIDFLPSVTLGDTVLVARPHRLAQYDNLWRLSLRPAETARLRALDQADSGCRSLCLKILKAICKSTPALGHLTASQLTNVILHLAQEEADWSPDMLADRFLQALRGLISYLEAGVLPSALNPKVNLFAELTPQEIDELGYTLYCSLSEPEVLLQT

Turning to `Nc1nc2c(ncn2[C@@H]2O[C@H](COP(=O)(O)OP(=O)(O)OP(=O)(O)O)[C@@H](O)[C@H]2O)c(=O)[nH]1` [GTP], the “GTP hydrolysis by purified Drp1 ([γ-32P]-GTP, thin-layer chromatography); abolis” value in assay [1] is ~ 1.5 molecules of GTP per minute.

`CNc1ccccc1C(=O)O[C@H]1[C@@H](O)[C@H](n2cnc3c(=O)[nH]c(N)nc32)O[C@@H]1COP(=O)(O)OP(=O)(O)O` [MANT-GDP] registered a Kd in assay [2] of 8 µM.
